From patent publication US8455469B2, “Use of norgestimate as a selective inhibitor of TRPC3, TRPC6 and TRPC7 ion channels” (Sanofi, priority 2007, dated 2013)

Columns and labels:
TRPC5 [1] = biological target: T1, TRPC5 (Homo sapiens, UniProt Q9UL62); assay: Whole-cell patch clamp, AlF4- activated TRPC5 HEK293 cells; format: cell-based; settings: 10 μM 2-APB, used for background calculation
T1 construct: expressed in transfected cells; host or cells: HEK293 FITR (inducible expression)
T1 sequence (Q9UL62 1-973): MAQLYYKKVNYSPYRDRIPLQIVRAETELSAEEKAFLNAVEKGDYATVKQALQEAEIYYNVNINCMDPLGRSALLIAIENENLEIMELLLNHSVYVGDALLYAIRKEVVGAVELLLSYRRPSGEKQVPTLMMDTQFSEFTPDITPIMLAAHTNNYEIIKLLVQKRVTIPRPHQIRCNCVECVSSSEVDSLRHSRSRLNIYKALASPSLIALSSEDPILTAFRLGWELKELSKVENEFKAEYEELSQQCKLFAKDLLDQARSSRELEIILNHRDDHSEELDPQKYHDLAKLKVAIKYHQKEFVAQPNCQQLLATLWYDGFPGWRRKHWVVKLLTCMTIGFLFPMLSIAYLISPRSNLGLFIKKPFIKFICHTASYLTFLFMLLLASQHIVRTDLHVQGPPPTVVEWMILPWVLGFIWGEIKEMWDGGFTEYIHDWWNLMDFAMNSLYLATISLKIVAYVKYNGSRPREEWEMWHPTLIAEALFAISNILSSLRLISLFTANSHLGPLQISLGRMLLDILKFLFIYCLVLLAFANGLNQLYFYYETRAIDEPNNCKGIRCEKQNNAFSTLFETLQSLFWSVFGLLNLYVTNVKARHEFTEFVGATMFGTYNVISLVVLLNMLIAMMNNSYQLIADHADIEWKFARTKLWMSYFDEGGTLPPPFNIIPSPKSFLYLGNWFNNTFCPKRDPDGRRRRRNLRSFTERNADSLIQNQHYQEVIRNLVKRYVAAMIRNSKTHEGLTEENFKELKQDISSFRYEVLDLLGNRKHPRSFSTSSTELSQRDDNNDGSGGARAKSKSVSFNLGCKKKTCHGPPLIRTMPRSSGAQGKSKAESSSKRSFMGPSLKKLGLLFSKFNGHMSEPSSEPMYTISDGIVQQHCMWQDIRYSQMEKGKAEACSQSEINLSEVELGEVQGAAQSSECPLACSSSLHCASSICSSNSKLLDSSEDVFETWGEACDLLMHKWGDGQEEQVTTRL
Procedure: Channels were indirectly excited with the same stimulus for better comparability of the norgestimate effect. Aluminium tetrafluoride (AIF^4−) applied intracellularly via the patch pipette activates G-proteins by mimicking GTP (Sternweis & Gilman, 1982; Bigay et al., 1987).
Since these channels are potentiated by micromolar La^3+ concentrations (Jung et al., 2003), 2-aminoethoxydiphenyl borate (2-APB), a characterized TRPC5 blocker (Xu et al., 2005) was used instead.
(§1) Effect of 10 μM norgestimate (NG) on whole-cell currents evoked by AlF4^− infusion into induced TRPC6— (A) and TRPC5 HEK 293 (B) cells. Whole cell currents recorded at −70 mV (left panels) and the corresponding current-voltage (I-V) relationships are shown (right panels). […] The curves were obtained during voltage ramps from −100 to +80 mV. (C) Statistical analysis of the norgestimate effect on TRPC5— and TRPC6-mediated currents.

TRPC6 = biological target: T2, TRPC6 (Homo sapiens, UniProt Q9Y210); assay: Whole-cell patch clamp, AlF4- activated TRPC6 HEK293 cells; format: cell-based; settings: 10 μM La3+, used for background calculation
T2 construct: expressed in transfected cells; host or cells: HEK293 (inducible expression)
T2 sequence (Q9Y210 1-931): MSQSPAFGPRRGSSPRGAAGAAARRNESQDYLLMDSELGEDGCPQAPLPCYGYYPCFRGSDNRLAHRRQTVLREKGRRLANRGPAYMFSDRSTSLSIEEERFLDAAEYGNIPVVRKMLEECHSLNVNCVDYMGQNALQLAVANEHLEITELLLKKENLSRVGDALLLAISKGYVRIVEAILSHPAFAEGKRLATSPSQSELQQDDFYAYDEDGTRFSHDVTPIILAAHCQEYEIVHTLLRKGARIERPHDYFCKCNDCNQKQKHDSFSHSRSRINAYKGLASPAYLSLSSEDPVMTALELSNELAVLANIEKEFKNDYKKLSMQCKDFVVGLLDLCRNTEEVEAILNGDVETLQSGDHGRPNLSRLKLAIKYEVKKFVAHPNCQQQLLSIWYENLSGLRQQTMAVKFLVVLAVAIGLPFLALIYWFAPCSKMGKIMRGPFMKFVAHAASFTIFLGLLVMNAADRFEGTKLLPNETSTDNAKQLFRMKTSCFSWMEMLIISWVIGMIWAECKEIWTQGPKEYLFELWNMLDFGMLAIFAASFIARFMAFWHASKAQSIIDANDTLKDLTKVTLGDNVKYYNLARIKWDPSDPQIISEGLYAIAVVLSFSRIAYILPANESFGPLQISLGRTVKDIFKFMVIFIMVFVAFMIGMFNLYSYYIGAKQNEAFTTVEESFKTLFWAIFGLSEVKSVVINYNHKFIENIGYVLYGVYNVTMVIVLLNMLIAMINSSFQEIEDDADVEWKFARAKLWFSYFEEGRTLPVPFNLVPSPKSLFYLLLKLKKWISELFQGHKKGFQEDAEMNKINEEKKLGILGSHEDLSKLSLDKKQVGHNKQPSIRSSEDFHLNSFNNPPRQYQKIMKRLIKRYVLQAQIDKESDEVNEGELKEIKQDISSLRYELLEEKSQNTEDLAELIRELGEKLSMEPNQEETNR
From the text: Inhibition of TRPC6- and TRPC5-mediated Ca^2+ -influx by norgestimate monitored in fluorometric experiments with cell populations was validated and compared with whole-cell patch clamp recordings of single cells. Channels were indirectly excited with the same stimulus for better comparability of the norgestimate effect. Aluminium tetrafluoride (AIF^4−) applied intracellularly via the patch pipette activates G-proteins by mimicking GTP (Sternweis & Gilman, 1982; Bigay et al., 1987). Subsequently TRPC channels are stimulated and mediate non-specific cationic currents (FIG. 3 A, B) When 10 μM norgestimate were applied to activated TRPC6 channels, 89.9 ±3.1% (n=15) of the current measured at resting membrane potential was blocked. This inhibition was reversible as current amplitude increased after norgestimate wash out (FIG. 3 A).
as §1, with “currents. 10 μM norgestimate inhibit 25.9±5.7% (n=20) of TRPC5-mediated currents and 89.9±3.1% (n=15) of TRPC6-mediated currents (P<0.001, Wilcoxon test, two-sided).” for “currents.”

TRPC5 [2] = biological target: T1, TRPC5; settings: micromolar concentrations (Jung et al., 2003); cited from earlier work

SMILES	block of TRPC5 channel (TRPC5 [1])	block of TRPC6 current (TRPC6)	block of TRPC6 current (TRPC6; listed as La^3+)	effect of micromolar La3+ concentrations on TRPC5 channels (TRPC5 [2])
NCCOB(c1ccccc1)c1ccccc1 [2-APB, 2-aminoethoxydiphenyl borate]	completely and reversibly blocked			
[La] [lanthanum]		complete and reversible	completely blocked	potentiated
